The text below walks through data of patent US6756362B2, “Methods and compositions based on inhibition of cell invasion and fibrosis by anionic polymers” (priority 1991, dated 2004).

The test system of test [1] is rat meningeal fibroblasts (RMF). The experiment in a line: Stripe assay, RMF. Also noted: key: Bands that were completely inhibitory to cell adhesion, migration and/or invasion were evaluated as (−); those allowing limited cell adhesion, migration and/or invasion (+/−); those permissive to cell adhesion, migration and/or invasion as (+). The note with it: for DS-PG Effect on Adhesion, Migration and Invasion: 2 days following plating. It counts as cell-based. How it is done:
Primary Cell Cultures. Primary cultures of rat meningeal fibroblasts (RMF) were obtained from P-3 rat pups. The tissue was removed from the animals and transferred to Leibovitz's L-15 with L-glutamine medium. The tissue was then cut into small pieces with a scalpel blade, enzymatically dissociated with 0.25% trypsin in Ca^2+/Mg^2+ free Hank's balanced salt solution (CMF-HBSS, Gibco Laboratories) for 20 minutes at 37° C., and mechanically triturated. The cells were rinsed with DMEM plus 10% FCS, concentrated by centrifugation and subsequently diluted in DMEM with 10% FCS for plating at 5.0×10^6 cells per 75 cm^2 flask. Adult rat sciatic nerve fibroblasts (RSF) were obtained by explantation of 1 mm sections of adult rat sciatic nerve.
The stripe assay was performed essentially as described by Snow et al. (1990, Exp. Neural. 309:111-130). Tissue culture Petri dishes (Falcon, 60 mm) were precoated with 0.5 ml of a mixture of 5 cm^2 section nitrocellulose (Schleicher & Schuell, Type BA 85) dissolved in 6 ml methanol, and air dried in a laminar flow hood. Cellulose filter paper (Whatman #1) was cut into 12×0.35 mm strips with a McIlwain tissue chopper (The Mickle Laboratory Engineering Co., LTD). A strip of filter paper was soaked in 20 μl of a solution of DS-PG or KS/CS-PG and LN at given concentration, blotted onto the nitrocellulose-coated dish for 30 sec. and removed. The test solution was allowed to air dry. This process was repeated several times creating clearly defined, equally spaced parallel bands of uniform width on the plates. A thin layer of 0.1 or 1 mg/ml LN was then spread evenly across the bands with a bent glass Pasteur pipet, and covered with culture medium (FIG. 1).
Plates were seeded with cell suspensions of 2.0×10^5 cells/ml or 4-10 DRG explants. The cultures were assessed for degree of adhesion, migration and/or invasion of the DS-PG or KS/CS-PG bands over a period of up to 7 days using a Leitz Fluovert microscope.
Bands that were completely inhibitory to cell adhesion, migration and/or invasion were evaluated as (−), those allowing limited cell adhesion, migration and/or invasion (+/−), and those permissive to cell adhesion, migration and/or invasion as (+). cell adhesion was defined as the initial interaction between the cell surface and the substratum which results in cell attachment and spreading. Cell migration was operationally defined as cell movement within the same substratum, and cell invasion was operationally defined as cell movement from one type of substratum to another type of substratum.

In test [2] the test system is epidural fibrosis at laminectomy site, Lewis inbred rats. Briefly: Epidural fibrosis after lumbar laminectomy in rats, gross evaluation. Details: scale not given here. It counts as in vivo, rat. Particulars: Table 4; 20 mg/ml; 4 weeks post-implantation.

With “keratan sulfate/chrondroitin sulfate-proteoglycans [KS/CS-PG]”, the “Effect of KS/CS-PG on Cell Migration” value in test [1] (0.12 mg/ml KS/CS-PG + LN stripes) was “+”; in test [1] (0.25 mg/ml KS/CS-PG + LN stripes), “+/−”; in test [1] (0.5 mg/ml KS/CS-PG + LN stripes), “+/−”; in test [1] (1.0 mg/ml KS/CS-PG + LN stripes) it was “+/−”; in test [1] (2.7 mg/ml KS/CS-PG + LN stripes), “−”.
For dextran [reference compound], the “TOTAL SCORE 4 WEEKS” value in test [2] is reported as 10.0 ± 1.2.
As for Dermatan sulfate proteoglycan [DS-PG], the “DS-PG Effect on Adhesion, Migration and Invasion” value is recorded as “+” in test [1] (0.1 mg/ml DS-PG + 20 μg/ml LN stripes), “+/−” in test [1] (0.2 mg/ml DS-PG + 20 μg/ml LN stripes), “−” in test [1] (0.4 mg/ml DS-PG + 20 μg/ml LN stripes) and “−” in test [1] (0.8 mg/ml DS-PG + 20 μg/ml LN stripes).
Take dextran sulfate: the “TOTAL SCORE 4 WEEKS” value in test [2] is 1.8 ± 0.9.
